The target in one series is T1, human S1P1 receptor (Homo sapiens, UniProt P21453).
T1 construct: expressed in transfected cells; membranes
Description: S1P1 GTPγS assay. The series is classed as biochemical. To be noted: agonist activity, [35S]-GTPγS binding, human S1P1 rat hepatoma membranes. The method, then: (§1) For membrane preparations all steps were performed at 4° C. Rat hepatoma cells stably expressing the human S1P1 receptor or Rat Basophilic Leukaemia cells (RBL) stably expressing human S1P3 receptor were grown to 80% confluency before being harvested into 10 ml Phospho-Buffered Saline (PBS) and centrifuged at 1200 rpm for 5 minutes. After removal of the supernatant, the pellet was re-suspended and cells were homogenised within a glass Waring blender for 2 bursts of 15 secs in 200 mls of buffer (50 mM HEPES, 1 mM leupeptin, 25 μg/ml bacitracin, 1 mM EDTA, 1 mM PMSF, 2 μM pepstatin A). The blender was plunged into ice for 5 mins after the first burst and 10-40 mins after the final burst to allow foam to dissipate. The material was then spun at 500 g for 20 mins and the supernatant spun for 36 mins at 48,000 g. The pellet was resuspended in the same buffer as above but without PMSF and pepstatin A. The material was then forced through a 0.6 mm needle, made up to the required volume, (usually ×4 the volume of the original cell pellet), aliquoted and stored frozen at −80° C.
as §1, with “All” for “For membrane preparations all”, “Cells” for “Rat hepatoma cells stably expressing the human S1P1 receptor or Rat Basophilic Leukaemia cells (RBL) stably expressing human S1P3 receptor were grown to 80% confluency before being harvested into 10 ml Phospho-Buffered Saline (PBS) and centrifuged at 1200 rpm for 5 minutes. After removal of the supernatant, the pellet was re-suspended and cells”
Human S1P1 rat hepatoma membranes (1.5 μg/well) were adhered to a wheatgerm agglutinin (WGA)-coated scintillation proximity assay (SPA) beads (0.125 mg/well) in assay buffer (HEPES 20 mM, MgCl2 10 mM, NaCl 100 mM and pH adjusted to 7.4 using KOH 5M, GDP 10 μM FAC (final assay concentration) and saponin 90 μg/ml FAC was also added).
After 30 minutes pre-coupling on ice the bead and membrane suspension was dispensed into a white Greiner polypropylene LV384-well plate ([…]), containing 0.1 μl of the compound. 5 μl/well [^355]-GTPγS (0.5 nM final radioligand conc) made up in assay buffer was then added to agonist plates. The final assay cocktail (10.1 μl) was then centrifuged at 1000 rpm for 5 minutes then read immediately on a Viewlux reader.
All test compounds were dissolved in DMSO at a concentration of 10 mM and were prepared in 100% DMSO using a 1 in 4 dilution step to provide 11 point dose response curves. The dilutions were transferred to the assay plates ensuring that the DMSO concentration was constant across the plate for all assays.
All data was normalized to the mean of 16 high and 16 low control wells on each plate. A four parameter curve fit was then applied.
S1P1 expressing RH7777 membranes (1.5 μg/well) membranes (1.5 μg/well) were homogenised by passing through a 23G needle. These were then adhered to WGA-coated SPA beads (0.125 mg/well) in assay buffer (HEPES 20 mM, MgCl2 10 mM, NaCl 100 mM and pH adjusted to 7.4 using KOH 5M). GDP 10 μM FAC and saponin 90 μg/ml FAC were also added
After 30 minutes precoupling on ice, the bead and membrane suspension was dispensed into white Greiner polypropylene LV 384-well plates (5 μl/well), containing 0.1 μl of compound. 5 μl/well [^35S]-GTPγS (0.5 nM for S1P1 or 0.3 nM for S1P3 final radioligand concentration) made in assay buffer was then added to the plates. The final assay cocktail (10.1 μl) was then sealed, spun on a centrifuge, then read immediately on a Viewlux instrument.
In general terms: GTPγS resists hydrolysis and so accumulates on activated G proteins.

The conditions of series [1]: clinical studies, first 24 hours of treatment; cited from earlier work.
Another series concerns circulating lymphocytes. To be noted: animals and man; cited from earlier work.

Structures are written as SMILES. Where a name gives a salt, the structure may show the parent alone. A value given as a limit tells only on which side of the number the result lay.

T1 sequence (P21453 whole entry): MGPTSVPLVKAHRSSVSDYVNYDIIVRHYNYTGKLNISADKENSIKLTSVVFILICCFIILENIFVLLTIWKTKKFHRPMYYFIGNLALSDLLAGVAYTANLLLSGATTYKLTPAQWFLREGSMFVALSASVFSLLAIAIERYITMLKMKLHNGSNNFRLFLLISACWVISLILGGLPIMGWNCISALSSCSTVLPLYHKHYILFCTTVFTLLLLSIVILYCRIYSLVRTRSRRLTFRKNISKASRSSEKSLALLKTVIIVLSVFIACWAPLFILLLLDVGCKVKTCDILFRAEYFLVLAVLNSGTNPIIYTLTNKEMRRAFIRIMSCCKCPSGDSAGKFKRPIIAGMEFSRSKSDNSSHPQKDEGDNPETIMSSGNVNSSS

What is called EC50 is the concentration giving half of the maximal effect. Low values mean an effect from little substance, high ones a need for much substance. Regarding `CC(C)Oc1ccc(-c2nc(-c3ccc4c(c3)OCCNC4)no2)cc1C#N` [Example 41, 2-[(1-Methylethyl)oxy]-5-[3-(2,3,4,5-tetrahydro-1,4-benzoxazepin-8-yl)-1,2,4-oxadiazol-5-yl]benzonitrile], the EC50 at human S1P1 receptor is less than 100 nM.

In turn, `CC(C)Oc1ccc(-c2nc(-c3cccc4c3OCCN(CCCCC(=O)O)C4)no2)cc1C#N` [Example 43, 5-[9-(5-{3-Cyano-4-[(1-methylethyl)oxy]phenyl}-1,2,4-oxadiazol-3-yl)-2,3-dihydro-1,4-benzoxazepin-4(5H)-yl]pentanoic acid] gave a 50% effective concentration (EC50) at human S1P1 receptor of less than 100 nM.

For the compound `CC(C)Oc1ccc(-c2nc(-c3cccc4c3OCCN(CCC(=O)O)C4)no2)cc1Cl` [Example 47, 3-[9-(5-{3-Chloro-4-[(1-methylethyl)oxy]phenyl}-1,2,4-oxadiazol-3-yl)-2,3-dihydro-1,4-benzoxazepin-4(5H)-yl]propanoic acid], the EC50 on human S1P1 receptor is less than 100 nM.

As to `CC(C)Oc1ncc(-c2nc(-c3ccc4c(c3)CCNCC4)no2)cc1C#N` [Example 48, 2-[(1-Methylethyl)oxy]-5-[3-(2,3,4,5-tetrahydro-1H-3-benzazepin-7-yl)-1,2,4-oxadiazol-5-yl]-3-pyridinecarbonitrile formate], the concentration for a half-maximal effect (EC50) on human S1P1 receptor is less than 100 nM.

At human S1P1 receptor, `CC(C)Oc1ncc(-c2nc(-c3ccc4c(c3)CCN(CCCC(=O)O)CC4)no2)cc1Cl` [Example 50, 4-[7-(5-{5-Chloro-6-[(1-methylethyl)oxy]-3-pyridinyl}-1,2,4-oxadiazol-3-yl)-1,2,4,5-tetrahydro-3H-3-benzazepin-3-yl]butanoic acid] had a 50% effective concentration (EC50) of less than 100 nM.

For the compound `CCCCCCCCc1ccc(CCC(N)(CO)CO)cc1` [FTY720], in series [1], the bradycardia on treatment result is recorded as “results in bradycardia”. Besides, in the series on circulating lymphocytes, the “effect on circulating lymphocytes” value was “reduce circulating lymphocytes”.

Values taken from patent publication US20100174065A1, “COMPOUNDS” (GLAXO GROUP LIMITED, priority 2007, published 2010).
